Measurements published in patent publication US8802103B2, “Compositions and methods for diagnosing and treating cancer” (OncoMed Pharmaceuticals, Inc., priority 2007, dated 2014).

System: UM-C17 colon tumor cells
Assay: UM-C17 colon tumor xenograft growth
Format: in vivo, NOD/SCID mice
Conditions: 10 mg/kg i.p. two times per week from day 19, tumors approximately 100 mm^3
Description: In certain embodiments, anti-Jagged 1 antibodies were analyzed for their ability to reduce the growth of UM-C17 colon tumor cells. Dissociated UM-C17 cells (10,000 per animal) were injected subcutaneously into the right flank region of 6-8 week old NOD/SCID mice. Day 19 after tumor cell injection, when tumors were approximately 100 mm^3, animals were injected intraperitoneal (i.p.) with either 10 mg/kg 64M14 anti-Jagged 1 antibodies, 10 mg/kg 64M14 anti-Jagged 1 antibody and 10 mg/kg Avastin (anti-VEGF), Avastin alone, or control antibody anti-DNP (dinitrophenol or anti-hapten) (n=10 per group) two times per week for the duration of the experiment. Both treatment with 64M14 antibodies and Avastin reduced tumor growth by close to 50% compared to controls (FIG. 4).

Avastin: anti-VEGF antibody
reduction of tumor growth compared to control antibodies: ~50%
